Data taken from US8143254B2, “Methods for modulating ion channels” (Cornell Research Foundation, Inc., priority 2005, dated 2012).

Experiments:
[1] = molecular target: T1, Kv3.4 (UniProt Q63734); assay: TEVC of X. laevis oocytes expressing Kv3.4; assay type: cell-based; conditions: 1 mM, bath applied
T1 construct: IC50; other: Kv3.4, logistic dose response fit; effect on Kv3.4 currents; other: 1 mM, bath applied; slope of dose response curve; other: Kv3.4
T1 sequence (Q63734 1-625): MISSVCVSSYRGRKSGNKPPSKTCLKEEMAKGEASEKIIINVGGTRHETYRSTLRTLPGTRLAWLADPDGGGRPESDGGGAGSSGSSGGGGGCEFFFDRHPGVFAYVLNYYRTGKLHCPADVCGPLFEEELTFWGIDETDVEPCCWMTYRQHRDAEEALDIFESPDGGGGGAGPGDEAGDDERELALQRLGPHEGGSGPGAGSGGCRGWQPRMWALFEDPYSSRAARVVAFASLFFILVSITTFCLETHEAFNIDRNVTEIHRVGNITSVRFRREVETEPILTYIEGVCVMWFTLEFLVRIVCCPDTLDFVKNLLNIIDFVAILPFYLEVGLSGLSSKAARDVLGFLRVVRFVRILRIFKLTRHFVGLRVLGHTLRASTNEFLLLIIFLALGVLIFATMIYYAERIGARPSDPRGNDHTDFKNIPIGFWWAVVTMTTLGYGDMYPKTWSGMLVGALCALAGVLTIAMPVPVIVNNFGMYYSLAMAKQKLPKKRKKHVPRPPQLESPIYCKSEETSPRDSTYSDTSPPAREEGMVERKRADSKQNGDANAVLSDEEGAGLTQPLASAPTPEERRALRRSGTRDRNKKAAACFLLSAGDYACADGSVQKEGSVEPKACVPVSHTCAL
Description: Kv2.1 mutants were constructed using the QuickChange Multi Site-Directed Mutagenesis Kit (Stratagene, La Jolla, Calif.). […] For oocyte expression, Kv3.4 was in pBF1, Kv4.2 was in pRAT. cRNA transcripts were produced from SacII-linearized (Kv2.1), Mlullinearized (Kv3.4) and Not1-linearized (Kv4.2) DNA templates using the T3 (Kv2.1), SP6 (Kv3.4) and T7 (Kv4.2) mMessage mMachine kits (Ambion, Austin, Tex.). cRNA was quantified by spectrophotometry and its size integrity verified by gel electophoresis. Defolliculated stage V and VI Xenopus laevis oocytes (purchased from Nasco, Grand Island, N.Y.) were injected with 5 ng of cRNA encoding Kv2.1, Kv3.4 or Kv4.2. Chinese Hamster Ovary (CHO) cells were transfected with 0.25 μg Kv2.1 cDNA, 2 μg blank plasmid and 2 μg Green fluorescent Protein in pBOB using Supetfect transfection reagent (Qiagen) 24 hours before whole-cell voltage clamp studies.
Oocytes were bathed in a small-volume Warner oocyte bath and viewed with a Fisher dissection microscope. Bath solution for whole-cell oocyte recordings was (in mM): 96 NaCl, 4 KCl, 0.7 MgCl2, 1 CaCl2, 10 HEPES (pH 7.4); whole-cell oocyte TEVC pipettes were of 0.2-2 M resistance when filled with 3 M KCl. Experiments were performed 24-48 hours after cRNA injection. For assessment of current-voltage relationships in the absence or presence of dabco derivatives, oocytes were held at −80 mV, stepped for 2 seconds at voltages between −80 mV and +60 mV in 20 mV steps (Kv2.1) or between −80 and +50 mV in 10 mV steps (Kv3.4), then held for 500 ms at −40 mV before returning to the holding potential. For assessment of block during wash-in of dabco derivatives at a single voltage, oocytes were held at −80 mV, and repetitively stepped to 0 mV for 2 s with an interpulse interval of 10 s or 60 s as indicated. A range of concentrations of dabco or dabco derivatives were washed in via the bath solution during repetitive single-voltage pulses (after an initial period of 5 pulses with control solution to ensure current stabilization) until equilibrium block was achieved, to establish dose-responses. […] Washout was performed after the highest concentration of blocker was washed in. In cases where washout was achieved, only those recordings in which current returned to within 10% of original current level were used for construction of dose-response curves. […] As controls for this protection analysis, JC638.2a or MTSET were washed in alone until equilibrium block, then washed out.
Data analysis: Current-voltage relationships were obtained by measuring peak current during depolarizing pulses. Inhibition constants for DABCO blockers were calculated after generating a dose response curve by fitting with a logistic dose-response function y=A2+[A1−A2/1+(x/x0)^p], where A1 is the maximum response plateau, A2 is the minimum response plateau, x is drug concentrator, x0 is the IC50, and p the Hill slope. Data analysis was performed using […] 9 (Axon Instruments, Foster City, Calif.) and tabulated in Excel 5.0. Graphs were generated using Origin 6.1. Data are expressed as mean±SEM, with n specifying the number of independent experiments. Statistical significance was assessed by one-way ANOVA with p<0.05 being indicative of significance.

[2] = molecular target: T2, Kv2.1 (Rattus norvegicus, UniProt P15387); assay: Two-electrode voltage clamp (TEVC) of Xenopus oocytes expressing Kv2.1, bath-applied compound; assay type: cell-based; conditions: for effect on Kv2.1 currents: 1 mM, bath applied
T2 construct: expressed in transfected cells; host or cells: Xenopus laevis oocytes (cRNA injection, pGA1 vector)
T2 sequence (P15387 whole entry): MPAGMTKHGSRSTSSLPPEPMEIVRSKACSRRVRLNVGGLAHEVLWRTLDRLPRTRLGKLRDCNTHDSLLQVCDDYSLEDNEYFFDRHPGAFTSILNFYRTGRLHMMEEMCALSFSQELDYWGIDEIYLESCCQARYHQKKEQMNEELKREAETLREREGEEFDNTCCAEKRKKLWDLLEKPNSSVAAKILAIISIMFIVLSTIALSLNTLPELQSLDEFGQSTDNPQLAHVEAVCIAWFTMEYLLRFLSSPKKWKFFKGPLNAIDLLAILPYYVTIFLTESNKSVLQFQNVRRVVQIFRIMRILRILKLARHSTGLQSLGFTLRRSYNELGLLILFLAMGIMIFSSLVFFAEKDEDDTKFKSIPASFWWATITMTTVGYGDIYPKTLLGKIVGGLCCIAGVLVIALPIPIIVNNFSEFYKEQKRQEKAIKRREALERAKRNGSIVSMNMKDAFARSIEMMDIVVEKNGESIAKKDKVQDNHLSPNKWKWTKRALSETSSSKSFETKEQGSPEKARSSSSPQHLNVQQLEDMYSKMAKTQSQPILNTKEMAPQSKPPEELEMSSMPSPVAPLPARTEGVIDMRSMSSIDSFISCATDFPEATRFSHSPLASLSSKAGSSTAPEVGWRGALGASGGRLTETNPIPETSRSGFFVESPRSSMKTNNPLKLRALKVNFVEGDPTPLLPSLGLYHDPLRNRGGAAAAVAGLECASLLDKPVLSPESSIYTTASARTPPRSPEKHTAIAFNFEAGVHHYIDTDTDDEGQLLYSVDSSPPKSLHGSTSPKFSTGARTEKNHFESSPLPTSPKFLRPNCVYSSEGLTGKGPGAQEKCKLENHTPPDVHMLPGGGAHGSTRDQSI
Description: The ion channel subunit genes are in expression vectors that facilitate in vitro transcription of channel cRNA using the Ambion mMessage mMachine in vitro transcription kit. cDNA constructs are column-purified, linearized with the appropriate restriction enzyme that cuts a single site following the polyA tail, then purified by precipitation and transcribed in vitro using a promoter, such as T7, T3 and SP6. Transcribed cRNA is purified by precipitation and resuspended in RNAse-free water ready for injection. Each transcription can provide enough cRNA for several months of experiments.
Stage V-VI Xenopus oocytes are separated into small groups using forceps, defolliculated by agitation in Ca^2+-free Ringer solution containing collagenase for one hour, washed, then stored at 15° C. in full Ringers solution before injection. cRNA sufficient to give 1-10 μA of current at physiological voltages for each channel type is injected into Xenopus oocytes (selected by appearance for overall health and uniformity of color) using a Sutter manual injector (typically 0.1-5 ng cRNA in a volume of 25-50 nl). The oocytes are then stored for 1-3 days at 15° C. before TEVC recording. Beta subunit cRNA is co-injected as appropriate, typically 2 ng per oocyte.
Whole cell oocyte experiments are performed using a Warner OC-725C amplifier and pClamp9 software with oocytes bathed in a small-volume Warner oocyte bath and viewed with a Fisher dissection microscope. Bath solution for whole cell oocyte recordings, e.g., for potassium channel analysis, is generally (in mM): 96 NaCl, 4 KCl, 1 MgCl2, 0.3 CaCl2, 10 HEPES (Ph 7.4); whole-cell oocyte TEVC pipettes are filled with 3 M KCl. Oocyte patches are studies using an Axon Instruments small-volume bath, viewed with an Olympus IX50 inverted microscope, and recordings made using an Axon Multiclamp 700 A Amplifier and pCLAMP9 software (Axon Instruments). Extracellular solution, e.g., for potassium channel analysis, is generally (in mM): 135 NaCl, 5 KCl, 1.2 MgCl2, 5 HEPES, 2.5 CaCl2, 10 D-glucose (Ph 7.4). Intracellular solution, e.g., for potassium channel analysis, is generally (in mM): 10 NaCl, 117 KCl, 2 MgCl2, 11 HEPES, 11 EGTA, ICaCl2 (Ph 7.2). Patch pipettes are approximately 3-5 MΩ resistance when filled with recording solution.
Quantitative aspects of ion action on ion channels are compared using standard pulse protocols. Pulse times and voltages will vary according to which currents are being studied. […] Drug inhibition constants are calculated after generating a dose response curve by fitting with a logistic dose-response function (see equation (i) below). Typically, 5-20 cells per group are recorded from for heterologous expression experiments. Values are to be stated as mean±SEM with statistical significance set at p<0.05 (unpaired students t-test, ANOVA or the Mann-Whitney Rank Sum Test as appropriate).
Injected oocytes, bathed in bath solution containing 4 mM KCl, unless otherwise stated, are impaled with current and voltage electrodes and clamped at −80 mV holding potential using a Warner OC-725C amplifier. […] Drug concentrations are chosen to ensure inhibition values between 0 and 90-100% with at least 3 values within the linear portion of the curve so that the inhibition constant (Ki) can be calculated accurately by fitting with a logistic dose-response function (formula (i)) using the Origin 6.1 graph package.
Kv2.1 mutants were constructed using the QuickChange Multi Site-Directed Mutagenesis Kit (Stratagene, La Jolla, Calif.). […] For oocyte expression, Kv3.4 was in pBF1, Kv4.2 was in pRAT. cRNA transcripts were produced from SacII-linearized (Kv2.1), Mlullinearized (Kv3.4) and Not1-linearized (Kv4.2) DNA templates using the T3 (Kv2.1), SP6 (Kv3.4) and T7 (Kv4.2) mMessage mMachine kits (Ambion, Austin, Tex.). cRNA was quantified by spectrophotometry and its size integrity verified by gel electophoresis.

SMILES	effect on Kv3.4 currents [1]	effect on Kv2.1 currents [2]	effect on Kv2.1 current during wash-in ([2]; 250 μM TG28, 0 mV)	Kv2.1 current level after washout relative to pre-drug current ([2]; 250 μM TG28 washed out, on average)
C1CN2CCN1CC2 [DABCO, 1,4-diazabicyclo[2.2.2]octane, reference compound]	no effects	no effects		
C(CCCCCC[N+]12CCN(CC1)CC2)CCCCC[N+]12CCN(CC1)CC2 [TG28, 1,12-[bis(4-aza-1-azoniabicyclo[2.2.2]octanyl)]dodecane]		block	rapid reduction of current (block) followed by slow, partial restoration of current (partial opening)	two-fold larger than the pre-drug current
